Patent US7074743B1, “Herbicidal composition comprising 4-iodo-2-[3-(4-methoxy-6-methyl-1,3,5-triazin-2-yl)ureidosulfonyl]benzoic esters” (priority 1995, dated 2006)

Tests used:
Type in all cases: in vivo
Phalaris canariensis = test: Herbicidal action on PHACA, visual scoring vs untreated, post-emergence 2-4 leaf stage (greenhouse / field trials)
Experimental: (§1) The examples given below were performed in the greenhouse and, in some cases, in field trials.
(§2) The herbicides, or combinations, were applied in cereals after the weeds had emerged naturally using plot sprayers. After application, the results, such as damage to the crop plants and effect on broad-leaved weeds/grass weeds were assessed by means of visual scoring. The herbicidal action was assessed qualitatively and quantitatively by comparing untreated and treated plots on the basis of the effect on plant growth and the development of chloroses and necroses down to the complete destruction of the weeds (0–100%). The application was effected when the crop plants and weeds were in the 2–4 leaf stage. The test was evaluated approximately 4 weeks after application.
(§3) In the greenhouse experiments, the crop plants and broadleaved weeds/grass weeds were grown in No. 13 pots and treated in the 2–4 leaf stage. The pots were subsequently placed in the greenhouse under good growth conditions (temperature, atmospheric humidity, water supply).
(§4) The assessments were carried out similarly to those in the field trials, i.e. visual scoring of the treated plants in comparison with untreated control variants. These assessments were carried out 3 weeks after applying the test preparations and their combinations. The experiments had been set up in two replications.
(§5) To assess the combination effects, the activities of the individual components were added and compared with the activity of the mixtures in equal doses. It was frequently observed that the efficacies of the combinations exceeded the total of the individual activities.
(§6) In cases with less clear effects, the expected value was calculated using Colby's formula and compared with the empirically determined result. The calculated efficacy of a combination which is expected in theory is determined is using S.R. Colby's formula: “Calculation of synergistic and antagonistic responses of herbicide combinations”, Weeds 15 (1967), pages 20 to 22.
(§7) [formula] where • X=% damage caused by herbicide A at a rate of ×kg a.i./ha; • Y=% damage caused by herbicide B at a rate of y kg a.i./ha; • Z=% damage caused by a further herbicide C at a rate of z kg a.i./ha; • E=expected value, i.e. expected damage caused by herbicides A+B (or A+B+C) at x+y (or x+y+z) kg a.i./ha.
(§8) Synergistic effects were assumed to be when the empirical value exceeded the expected value. In the case of combinations with individual components with the same active substances, comparisons via the total formula were also possible.

Apera spica venti = test: Herbicidal action on APESV, visual scoring vs untreated, post-emergence 2-4 leaf stage; conditions: Table 1
Experimental: as §1, §2, §3, §4, §5, §6, §7, §8

Triticum aestivum = test: Damage to crop plant TRZAW, visual scoring vs untreated
Experimental: as §1, §2, §3, §4

Gallium aparine = test: Herbicidal action on GALAP, visual scoring vs untreated, post-emergence 2-4 leaf stage; conditions: Table 11
Experimental: as §1, §2, §3, §4, §5, §6, §7, §8

Avena fatua = test: Herbicidal action on AVEFA, visual scoring vs untreated, post-emergence 2-4 leaf stage; conditions: Table 11
Experimental: as §1, §2, §3, §4, §5, §6, §7, §8

Mercurialis annua = test: Herbicidal action on MERAN, visual scoring vs untreated, post-emergence 2-4 leaf stage; conditions: Table 11
Experimental: as §1, §2, §3, §4, §5, §6, §7, §8

Lolium multiflorum = test: Herbicidal action on LOLMU, visual scoring vs untreated, post-emergence 2-4 leaf stage
Experimental: as §1, §2, §3, §4, §5, §6, §7, §8

Echinochloa crus galli = test: Herbicidal action on ECHCR, visual scoring vs untreated, post-emergence 2-4 leaf stage; conditions: Table 4
Experimental: as §1, §2, §3, §4, §5, §6, §7, §8

Zea mays = test: Damage to crop plant ZEAMA, visual scoring vs untreated; conditions: Table 4
Experimental: as §1, §2, §3, §4

Fallopia convolvulus = test: Herbicidal action on FALCO, visual scoring vs untreated, post-emergence 2-4 leaf stage; conditions: Table 5
Experimental: as §1, §2, §3, §4, §5, §6, §7, §8

Centaurea cyanus = test: Herbicidal action on CENCY, visual scoring vs untreated, post-emergence 2-4 leaf stage; conditions: Table 6
Experimental: as §1, §2, §3, §4, §5, §6, §7, §8

Secale cereale = test: Damage to crop plant SECCW, visual scoring vs untreated; conditions: Table 6
Experimental: as §1, §2, §3, §4

COC(=O)C(C)Oc1ccc(Oc2ccc(Cl)cc2Cl)cc1 (racemic) [B3), diclofop-methyl]
PHACA % control (Phalaris canariensis; Table 1, 225 g of a.i./ha): 0% | PHACA % control (Phalaris canariensis; Table 1, 450 g of a.i./ha): 0% | PHACA % control (Phalaris canariensis; Table 1, 900 g of a.i./ha): 0% | APESV % control (Apera spica venti; 225 g of a.i./ha): 0% | APESV % control (Apera spica venti; 450 g of a.i./ha): 0% | APESV % control (Apera spica venti; 900 g of a.i./ha): 8% | TRZAW % damage (Triticum aestivum; Table 1, 225 g of a.i./ha): 0% | TRZAW % damage (Triticum aestivum; Table 1, 450 g of a.i./ha): 0% | TRZAW % damage (Triticum aestivum; Table 1, 900 g of a.i./ha): 0%

CP(=O)(O)CC[C@@H](N)C(=O)O (racemic) [B49), 4-[hydroxy(methyl)phosphinoyl]-DL-homoalanine]
GALAP % control (Gallium aparine; 150 g of a.i./ha): 55% | GALAP % control (Gallium aparine; 300 g of a.i./ha): 73% | GALAP % control (Gallium aparine; 450 g of a.i./ha): 85% | AVEFA % control (Avena fatua; 150 g of a.i./ha): 60% | AVEFA % control (Avena fatua; 300 g of a.i./ha): 70% | AVEFA % control (Avena fatua; 450 g of a.i./ha): 80% | MERAN % control (Mercurialis annua; 150 g of a.i./ha): 65% | MERAN % control (Mercurialis annua; 300 g of a.i./ha): 78% | MERAN % control (Mercurialis annua; 450 g of a.i./ha): 90%

CC(C)c1ccc(NC(=O)N(C)C)cc1 [B2), 3-(4-isopropylphenyl)-1,1-dimethylurea]
PHACA % control (Phalaris canariensis; Table 3, 375 g of a.i./ha): 0% | PHACA % control (Phalaris canariensis; Table 3, 750 g of a.i./ha): 0% | PHACA % control (Phalaris canariensis; Table 3, 1500 g of a.i./ha): 50% | TRZAW % damage (Triticum aestivum; in vivo): 0% | LOLMU % control (Lolium multiflorum; Table 3, 375 g of a.i./ha): 0% | LOLMU % control (Lolium multiflorum; Table 3, 750 g of a.i./ha): 0% | LOLMU % control (Lolium multiflorum; Table 3, 1500 g of a.i./ha): 0%

COc1cc(OC)nc(NC(=O)NS(=O)(=O)c2ncccc2C(=O)N(C)C)n1 [B13), 1-(4,6-dimethoxypyrimidin-2-yl)-3-(3-dimethylcarbamoyl-2-pyridylsulfonyl)urea]
ECHCR % control (Echinochloa crus galli; 15 g of a.i./ha): 0% | ECHCR % control (Echinochloa crus galli; 30 g of a.i./ha): 73% | ECHCR % control (Echinochloa crus galli; 60 g of a.i./ha): 75% | ZEAMA % damage (Zea mays; 15 g of a.i./ha): 0% | ZEAMA % damage (Zea mays; 30 g of a.i./ha): 0% | ZEAMA % damage (Zea mays; 60 g of a.i./ha): 2%

CCS(=O)(=O)c1cccnc1S(=O)(=O)NC(=O)Nc1nc(OC)cc(OC)n1 [B14), 1-(4,6-dimethoxypyrimidin-2-yl)-3-(3-ethylsulfonyl-2-pyridylsulfonyl) urea]
ECHCR % control (Echinochloa crus galli; 5 g of a.i./ha): 15% | ECHCR % control (Echinochloa crus galli; 10 g of a.i./ha): 60% | ECHCR % control (Echinochloa crus galli; 20 g of a.i./ha): 85%

Cc1cc(Cl)ccc1O[C@H](C)C(=O)O [B16), (R)-2-(4-chloro-o-tolyloxy)propionic acid]
TRZAW % damage (Triticum aestivum; Table 5, 125 g of a.i./ha): 0% | TRZAW % damage (Triticum aestivum; Table 5, 250 g of a.i./ha): 0% | TRZAW % damage (Triticum aestivum; Table 5, 500 g of a.i./ha): 0% | TRZAW % damage (Triticum aestivum; Table 5, 1000 g of a.i./ha): 0% | FALCO % control (Fallopia convolvulus; 125 g of a.i./ha): 0% | FALCO % control (Fallopia convolvulus; 250 g of a.i./ha): 15% | FALCO % control (Fallopia convolvulus; 500 g of a.i./ha): 55% | FALCO % control (Fallopia convolvulus; 1000 g of a.i./ha): 68% | CENCY % control (Centaurea cyanus; 600 g of a.i./ha): 30% | CENCY % control (Centaurea cyanus; 2500 g of a.i./ha): 70% | SECCW % damage (Secale cereale; 600 g of a.i./ha): 0% | SECCW % damage (Secale cereale; 2500 g of a.i./ha): 0%

Cc1cc(Cl)ccc1OCC(=O)O [B17), (4-chloro-2-methylphenoxy) acetic acid]
TRZAW % damage (Triticum aestivum; Table 5, 250 g of a.i./ha): 0% | FALCO % control (Fallopia convolvulus; 250 g of a.i./ha): 0% | FALCO % control (Fallopia convolvulus; 500 g of a.i./ha): 68% | FALCO % control (Fallopia convolvulus; 1000 g of a.i./ha): 75%

COc1c(Cl)ccc(Cl)c1C(=O)O [B20), 3,6-dichloro-o-anisic acid]
LOLMU % control (Lolium multiflorum; Table 5, 50 g of a.i./ha): 5% | LOLMU % control (Lolium multiflorum; Table 5, 100 g of a.i./ha): 10% | LOLMU % control (Lolium multiflorum; Table 5, 200 g of a.i./ha): 18% | LOLMU % control (Lolium multiflorum; Table 5, 400 g of a.i./ha): 40%

Nc1c(Cl)c(F)nc(OCC(=O)O)c1Cl [B21), 4-amino-3,5-dichloro-6-fluoro-2-pyridyloxyacetic acid]
FALCO % control (Fallopia convolvulus; 50 g of a.i./ha): 73% | FALCO % control (Fallopia convolvulus; 100 g of a.i./ha): 80% | FALCO % control (Fallopia convolvulus; 200 g of a.i./ha): 95%
